Structures can show the parent of a compound that is named as a salt.
Biological target: recombinant full length HPK-1 enzyme (Homo sapiens (Human), UniProt Q92918)
Test: HPK-1 biochemical enzyme assay (ADP-Glo kinase inhibition)
Details: recombinant full length HPK-1 6.8 nM, 10 μM ATP, 12.5 μM MBP, 30 mins at 25° C.
Method in brief: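 Recombinant full-length human HPK-1 (6.8 nM) incubated 30 min at 25° C. with 10 μM ATP and 12.5 μM swine MBP in 40 mM Tris pH 7.4, 20 mM MgCl2, 50 μM DTT, 0.1 mg/mL BSA. ADP measured by ADP-Glo; IC50 from 10 concentrations, normalized to no-enzyme and vehicle controls.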

Sequence of recombinant full length HPK-1 enzyme (Q92918 whole entry, species assumed): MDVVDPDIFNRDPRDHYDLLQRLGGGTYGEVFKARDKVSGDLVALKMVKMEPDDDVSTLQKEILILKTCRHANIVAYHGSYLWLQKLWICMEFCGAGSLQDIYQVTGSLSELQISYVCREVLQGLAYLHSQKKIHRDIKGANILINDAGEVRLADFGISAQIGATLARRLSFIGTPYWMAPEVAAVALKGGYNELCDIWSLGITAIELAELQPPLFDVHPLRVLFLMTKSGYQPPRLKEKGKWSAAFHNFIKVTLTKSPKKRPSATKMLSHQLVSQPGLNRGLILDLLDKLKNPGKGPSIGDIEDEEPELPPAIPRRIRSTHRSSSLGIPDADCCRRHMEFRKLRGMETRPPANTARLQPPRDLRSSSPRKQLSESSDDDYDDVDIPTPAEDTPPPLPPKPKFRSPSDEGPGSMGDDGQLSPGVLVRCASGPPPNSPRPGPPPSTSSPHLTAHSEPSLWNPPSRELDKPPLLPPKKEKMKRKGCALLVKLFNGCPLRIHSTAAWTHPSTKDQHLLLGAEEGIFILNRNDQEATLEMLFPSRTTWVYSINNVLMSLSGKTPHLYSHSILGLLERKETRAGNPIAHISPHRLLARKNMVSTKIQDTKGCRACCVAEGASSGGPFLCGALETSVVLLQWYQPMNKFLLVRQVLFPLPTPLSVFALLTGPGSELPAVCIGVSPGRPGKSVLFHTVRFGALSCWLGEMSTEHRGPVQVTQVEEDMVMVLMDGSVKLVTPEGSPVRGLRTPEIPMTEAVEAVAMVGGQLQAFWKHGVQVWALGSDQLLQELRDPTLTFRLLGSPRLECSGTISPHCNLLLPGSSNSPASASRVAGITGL

Row | Compound | IC50 [nM]
1 | Cc1c(Nc2cc[nH]c(=O)c2C(=O)Nc2ccc(N3CCC(C(N)=O)CC3)cc2)cnc2c1NCCO2 [Example 247, N-(4-(4-carbamoylpiperidin-1-yl)phenyl)-4-((8-methyl-2,3-dihydro-1H-pyrido[2,3-b][1,4]oxazin-7-yl)amino)-2-oxo-1,2-dihydropyridine-3-carboxamide] | ≤ 10
2 | Cc1c(Nc2cc[nH]c(=O)c2C(=O)Nc2cnc(-n3nccn3)c(Cl)c2)cnc2c1NCCO2 [Example 229, N-(5-chloro-6-(2H-1,2,3-triazol-2-yl)pyridin-3-yl)-4-((8-methyl-2,3-dihydro-1H-pyrido[2,3-b][1,4]oxazin-7-yl)amino)-2-oxo-1,2-dihydropyridine-3-carboxamide] | 100 to 1000
3 | CN1CCN(c2ccc(NC(=O)c3c(Nc4cnc5c(c4)NCCO5)cc[nH]c3=O)cc2)CC1 [Example 115, 4-((2,3-dihydro-1H-pyrido[2,3-b][1,4]oxazin-7-yl)amino)-N-(4-(4-methylpiperazin-1-yl)phenyl)-2-oxo-1,2-dihydropyridine-3-carboxamide.TFA] | 10 to 100
4 | Cc1cc(N2CCN(C)CC2)ccc1NC(=O)c1c(Nc2cnc3c(c2C)NCCO3)cc[nH]c1=O [Example 195, 4-((8-methyl-2,3-dihydro-1H-pyrido[2,3-b][1,4]oxazin-7-yl)amino)-N-(2-methyl-4-(4-methylpiperazin-1-yl)phenyl)-2-oxo-1,2-dihydropyridine-3-carboxamide] | 100 to 1000
5 | Cc1c(Nc2cc[nH]c(=O)c2C(=O)Nc2ccc(C[C@H]3COC(=O)N3)cc2)cnc2c1NCCO2 [Example 228, (S)-4-((8-methyl-2,3-dihydro-1H-pyrido[2,3-b][1,4]oxazin-7-yl)amino)-2-oxo-N-(4-((2-oxooxazolidin-4-yl)methyl)phenyl)-1,2-dihydropyridine-3-carboxamide] | 10 to 100
6 | CCN1CCN(c2c(F)cc(NC(=O)c3c(Nc4cnc5c(c4C)NCCO5)cc[nH]c3=O)cc2Cl)CC1 [Example 389, N-(3-Chloro-4-(4-ethylpiperazin-1-yl)-5-fluorophenyl)-4-((8-methyl-2,3-dihydro-1H-pyrido[2,3-b][1,4]oxazin-7-yl)amino)-2-oxo-1,2-dihydropyridine-3-carboxamide] | ≤ 10
7 | Cc1c(Nc2cc[nH]c(=O)c2C(=O)Nc2ccc3nc(NC(=O)[C@@H]4C[C@@H]4F)sc3c2)cnc2c1NCCO2 [Example 296, N-(2-((1S,2S)-2-fluorocyclopropane-1-carboxamido)benzo[d]thiazol-6-yl)-4-((8-methyl-2,3-dihydro-1H-pyrido[2,3-b][1,4]oxazin-7-yl)amino)-2-oxo-1,2-dihydropyridine-3-carboxamide] | 100 to 1000
8 | CCN1C(=O)C(C)(C)c2cc(NC(=O)c3c(Nc4cnc5c(c4C)NCCO5)cc[nH]c3=O)ccc21 [Example 218, N-(1-ethyl-3,3-dimethyl-2-oxoindolin-5-yl)-4-((8-methyl-2,3-dihydro-1H-pyrido[2,3-b][1,4]oxazin-7-yl)amino)-2-oxo-1,2-dihydropyridine-3-carboxamide] | 100 to 1000
9 | Cc1c(Nc2cc[nH]c(=O)c2C(=O)Nc2ccc(N3CCC(C)(CO)CC3)cc2)cnc2c1NCCO2 [Example 301, N-(4-(4-(hydroxymethyl)-4-methylpiperidin-1-yl)phenyl)-4-((8-methyl-2,3-dihydro-1H-pyrido[2,3-b][1,4]oxazin-7-yl)amino)-2-oxo-1,2-dihydropyridine-3-carboxamide] | 10 to 100
10 | Cc1cc(NS(C)(=O)=O)ccc1NC(=O)c1c(Nc2cnc3c(c2C)NCCO3)cc[nH]c1=O [Example 217, 4-((8-methyl-2,3-dihydro-1H-pyrido[2,3-b][1,4]oxazin-7-yl)amino)-N-(2-methyl-4-(methylsulfonamido)phenyl)-2-oxo-1,2-dihydropyridine-3-carboxamide] | 100 to 1000
11 | Cc1c(Nc2cc[nH]c(=O)c2C(=O)Nc2ccc(N3CCN(C(=O)CC4CC4)CC3)cc2)cnc2c1NCCO2 [Example 312, N-(4-(4-(2-cyclopropylacetyl)piperazin-1-yl)phenyl)-4-((8-methyl-2,3-dihydro-1H-pyrido[2,3-b][1,4]oxazin-7-yl)amino)-2-oxo-1,2-dihydropyridine-3-carboxamide] | ≤ 10
12 | Cc1c(Nc2cc[nH]c(=O)c2C(=O)Nc2ccc(N3CCN4CCOC[C@@H]4C3)cc2)cnc2c1NCCO2 [Example 327, (S)-N-(4-(hexahydropyrazino[2,1-c][1,4]oxazin-8(1H)-yl)phenyl)-4-((8-methyl-2,3-dihydro-1H-pyrido[2,3-b][1,4]oxazin-7-yl)amino)-2-oxo-1,2-dihydropyridine-3-carboxamide] | ≤ 10
13 | Cc1c(Nc2cc[nH]c(=O)c2C(=O)Nc2cccc(N3CCN(C)CC3)c2)cnc2c1NCCO2 [Example 222, 4-((8-methyl-2,3-dihydro-1H-pyrido[2,3-b][1,4]oxazin-7-yl)amino)-N-(3-(4-methylpiperazin-1-yl)phenyl)-2-oxo-1,2-dihydropyridine-3-carboxamide] | 100 to 1000
14 | Cc1c(Nc2cc[nH]c(=O)c2C(=O)Nc2ccc(N3CCN(C(C)C)CC3)cc2)cnc2c1NCC(C)O2 (centres unmarked) [Example 404, 4-((3,8-dimethyl-2,3-dihydro-1H-pyrido[2,3-b][1,4]oxazin-7-yl)amino)-N-(4-(4-isopropylpiperazin-1-yl)phenyl)-2-oxo-1,2-dihydropyridine-3-carboxamide] | ≤ 10

Other lines, results leading:

Row | IC50 [nM] | Compound
15 | ≤ 10 | Cc1c(Nc2cc[nH]c(=O)c2C(=O)Nc2ccc(N3CCN(C(=O)N4CCCC4)CC3)cc2)cnc2c1NCCO2 [Example 324, 4-((8-methyl-2,3-dihydro-1H-pyrido[2,3-b][1,4]oxazin-7-yl)amino)-2-oxo-N-(4-(4-(pyrrolidine-1-carbonyl)piperazin-1-yl)phenyl)-1,2-dihydropyridine-3-carboxamide]
16 | 10 to 100 | CCN1CCN(c2ccc(NC(=O)c3c(Nc4cnc5c(c4C)NCC(C)O5)cc[nH]c3=O)cc2F)CC1 (centres unmarked) [Example 361, 4-((3,8-dimethyl-2,3-dihydro-1H-pyrido[2,3-b][1,4]oxazin-7-yl)amino)-N-(4-(4-ethylpiperazin-1-yl)-3-fluorophenyl)-2-oxo-1,2-dihydropyridine-3-carboxamide]
17 | 10 to 100 | Cc1c(Nc2cc[nH]c(=O)c2C(=O)Nc2ccc(C3CCOCC3)cc2)cnc2c1NCCO2 [Example 133, 4-((8-methyl-2,3-dihydro-1H-pyrido[2,3-b][1,4]oxazin-7-yl)amino)-2-oxo-N-(4-(tetrahydro-2H-pyran-4-yl)phenyl)-1,2-dihydropyridine-3-carboxamide]
18 | 10 to 100 | Cc1nc2cc(NC(=O)c3c(Nc4cnc5c(c4C)NCCO5)cc[nH]c3=O)ccc2[nH]1 [Example 224, N-(2-methyl-1H-benzo[d]imidazol-5-yl)-4-((8-methyl-2,3-dihydro-1H-pyrido[2,3-b][1,4]oxazin-7-yl)amino)-2-oxo-1,2-dihydropyridine-3-carboxamide]
19 | ≤ 10 | Cc1c(Nc2cc[nH]c(=O)c2C(=O)Nc2ccc(N3CCN(C(C)c4ccn[nH]4)CC3)cc2)cnc2c1NCCO2 (centres unmarked) [Example 378, N-(4-(4-(1-(1H-pyrazol-5-yl)ethyl)piperazin-1-yl)phenyl)-4-((8-methyl-2,3-dihydro-1H-pyrido[2,3-b][1,4]oxazin-7-yl)amino)-2-oxo-1,2-dihydropyridine-3-carboxamide]
20 | 10 to 100 | Cc1c(Nc2cc[nH]c(=O)c2C(=O)Nc2ccc(N3CCCC3CO)cc2)cnc2c1NCCO2 (centres unmarked) [Example 397, N-(4-(2-(hydroxymethyl)pyrrolidin-1-yl)phenyl)-4-((8-methyl-2,3-dihydro-1H-pyrido[2,3-b][1,4]oxazin-7-yl)amino)-2-oxo-1,2-dihydropyridine-3-carboxamide]
21 | ≤ 10 | Cc1c(Nc2cc[nH]c(=O)c2C(=O)Nc2ccc(N3CCN(C(=O)C4CC(F)(F)C4)CC3)cc2)cnc2c1NCCO2 [Example 318, N-(4-(4-(3,3-difluorocyclobutane-1-carbonyl)piperazin-1-yl)phenyl)-4-((8-methyl-2,3-dihydro-1H-pyrido[2,3-b][1,4]oxazin-7-yl)amino)-2-oxo-1,2-dihydropyridine-3-carboxamide]
22 | 10 to 100 | COc1cc(NC(=O)c2c(Nc3cnc4c(c3C)NCC(C)O4)cc[nH]c2=O)ccc1N1CCN(C)CC1 (centres unmarked) [Example 203, 4-((3,8-dimethyl-2,3-dihydro-1H-pyrido[2,3-b][1,4]oxazin-7-yl)amino)-N-(3-methoxy-4-(4-methylpiperazin-1-yl)phenyl)-2-oxo-1,2-dihydropyridine-3-carboxamide]
23 | 10 to 100 | Cc1c(Nc2cc[nH]c(=O)c2C(=O)Nc2cnn(CC(F)(F)F)c2)cnc2c1NCCO2 [Example 409, 4-((8-methyl-2,3-dihydro-1H-pyrido[2,3-b][1,4]oxazin-7-yl)amino)-2-oxo-N-(1-(2,2,2-trifluoroethyl)-1H-pyrazol-4-yl)-1,2-dihydropyridine-3-carboxamide]
24 | 10 to 100 | Cc1c(Nc2cc[nH]c(=O)c2C(=O)Nc2ccc(N3CCN(C)CC3)cc2)cnc2c1NCC(C(C)C)O2 (centres unmarked) [Example 189, 4-((3-isopropyl-8-methyl-2,3-dihydro-1H-pyrido[2,3-b][1,4]oxazin-7-yl)amino)-N-(4-(4-methylpiperazin-1-yl)phenyl)-2-oxo-1,2-dihydropyridine-3-carboxamide]
25 | ≤ 10 | Cc1c(Nc2cc[nH]c(=O)c2C(=O)Nc2ccc(N3CCC(N)CC3)cc2)cnc2c1NCCO2 [Example 154, N-(4-(4-aminopiperidin-1-yl)phenyl)-4-((8-methyl-2,3-dihydro-1H-pyrido[2,3-b][1,4]oxazin-7-yl)amino)-2-oxo-1,2-dihydropyridine-3-carboxamide]
26 | ≤ 10 | Cc1c(Nc2cc[nH]c(=O)c2C(=O)Nc2ccc(N3CCN(CC(C)(C)O)CC3)cc2)cnc2c1NCCO2 [Example 282, N-(4-(4-(2-hydroxy-2-methylpropyl)piperazin-1-yl)phenyl)-4-((8-methyl-2,3-dihydro-1H-pyrido[2,3-b][1,4]oxazin-7-yl)amino)-2-oxo-1,2-dihydropyridine-3-carboxamide]

— patent US20250282794A1 (CURADEV PHARMA LTD, priority 2022, published 2025)
